{"source": "patent US6423518B1", "about": "“Design and production of mutant 2,5-diketo-D-gluconic acid reductase enzymes with altered cofactor dependency” (Rutgers, the State University, priority 2000, dated 2002)", "assay_in_all_cases": "Kinetic determination with purified enzyme, NADH cofactor, initial rates (microtiter plate)", "assay_type_in_all_cases": "biochemical", "key": {"[1]": {"molecular_target": "T1, 2,5-diketo-D-gluconic acid reductase A (Corynebacterium sp., wild type SEQ ID NO:1) variant K232M (Corynebacterium sp., UniProt P06632, K232M)", "T1 construct": "GroES fragment (N); made in house; host or cells: E. coli JM109", "T1 sequence (P06632 whole entry K232M, the tested form may be a part)": "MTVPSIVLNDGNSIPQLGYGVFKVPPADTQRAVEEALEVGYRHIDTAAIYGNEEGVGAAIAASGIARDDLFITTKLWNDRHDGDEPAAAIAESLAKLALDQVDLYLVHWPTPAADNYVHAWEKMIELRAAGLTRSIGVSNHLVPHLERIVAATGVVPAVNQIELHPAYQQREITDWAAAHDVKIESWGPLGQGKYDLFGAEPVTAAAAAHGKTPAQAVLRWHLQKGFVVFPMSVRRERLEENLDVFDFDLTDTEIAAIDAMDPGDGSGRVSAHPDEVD", "protocol": "(§1) The activities of the purified enzymes were assayed in 96-well microtiter plates on a plate reader.\n(§2) Equation (1) is: [formula]\n(§3) B=2,5-diketo-D-gluconic acid concentration;\n(§4) Kb=Michaelis Constant for 2,5-diketo-D-gluconic acid;\n(§5) Et=Total enzyme concentration.\n(§6) This equation is only valid when B<<Kb.\n(§7) Cells containing plasmids for some of the mutant reductases were grown up on a 1 liter scale using a 10 ml inoculum from a saturated overnight culture. The cells were grown until absorbance of the culture at 600 nm was approximately 1.0. The cells were then induced by adding IPTG to a final concentration of 1 mM. The cells were harvested after growth at 37° C. for 4 hours. The cells were then pelleted by centrifugation and frozen for later use. At a later date, cells were thawed and lysed with the Bug Buster detergent (Novagen) containing Complete Protease Inhibitor Cocktail Tablets (Roche). The pH was lowered to 5.5 with 20 mM sodium acetate (NaOAc) and NaCl was added to a final concentration of 0.15 M. After 10 minutes with the detergent, the cell debris was removed by centrifugation, and the supernatant was loaded onto disposable chromatography columns containing a 10 ml bed volume of DEAE Cellulose (Sigma) for a batch weak ion exchange step. The resin was washed with 0.15 M NaCl, still in the presence of NaOAc, pH 5.5. The bound proteins were then eluted by two washes with 0.5 M NaCl."}, "[2]": {"molecular_target": "T2, 2,5-diketo-D-gluconic acid reductase A (Corynebacterium sp., wild type SEQ ID NO:1) variant K232Q (Corynebacterium sp., UniProt P06632, K232Q)", "T2 construct": "GroES fragment (N); made in house; host or cells: E. coli JM109", "T2 sequence (P06632 whole entry K232Q, the tested form may be a part)": "as the sequence (P06632 whole entry K232M, the tested form may be a part) above, with M232Q counted along it", "protocol": "as §1, §2, §3, §4, §5, §6, §7"}, "[3]": {"molecular_target": "T3, 2,5-diketo-D-gluconic acid reductase A (Corynebacterium sp., wild type SEQ ID NO:1) variant K232G (Corynebacterium sp., UniProt P06632, K232G)", "T3 construct": "GroES fragment (N); made in house; host or cells: E. coli JM109", "T3 sequence (P06632 whole entry K232G, the tested form may be a part)": "as the sequence (P06632 whole entry K232M, the tested form may be a part) above, with M232G counted along it", "protocol": "as §1, §2, §3, §4\n(§8) Kia=Dissociation Constant for NADH;\nas §5\n(§9) However, the parameters could not be fit in this model with any accuracy, due to the large apparent value of KM for 2,5-diketo-D-gluconic acid, and the low concentration of 2,5-diketo-D-gluconic acid that was used. The 2,5-diketo-D-gluconic acid concentrations were not large enough to saturate the enzyme, so a further mathematical simplification was required. Preliminary fitting of the model indicated both kcat and Kb to be very large in comparison to Ka and Kia Therefore, the rate equation was simplified to the following equation (2): [formula]\nas §6\n(§10) This equation was then used to fit the kinetic data, with much better results.\n(§11) Other comparisons can also be made between the different mutants using these parameters. […]\nas §7, with “NaCl. The eluted material was then diluted back to 0.15 M NaCl by the addition of more 20 mM NaOAc buffer. This was then loaded onto a 4.6 mmD/100mml PEEK column (PerSeptive Biosystems) containing 50 μm DEAE Ceramic HyperD F resin (BioSepra) using an FPLC system. The high performance resin was washed with 0.1 M NaCl and the bound proteins were eluted using a linear salt gradient up to 0.4 M NaCl. Active fractions were pooled and the pH was raised to 7.0 using 50 mM bis-Tris. The pooled fractions were then concentrated by ultrafiltration in a stirred cell unit using a polyethersulfone membrane with a 10,000 MW cut-off (Millipore). The concentrate was loaded onto a Superdex-75 gel filtration column (Pharmacia) using 50 mM bis-Tris pH 7.0 with an FPLC system. The active fractions were again pooled. A small sample from the pooled fractions was electrophoresed on a polyacrylamide gel in the presence of SDS in order to insure homogeneity of the final product.” for “NaCl.”\n(§12) NADPH and NADH were prepared fresh for each use in kinetic measurements. These reactions were performed in 96-well microtiter plates using a SpectraMax 190 plate reader (Molecular Devices). Varying amounts of cofactor and substrate were added to the wells and reaction was initiated by the addition of the mutant enzyme. The final volume of each reaction was 200 μl, the reactions were buffered with 50 mM bis-Tris pH 7.0, and the temperature was held at 25° C. […] Initial rate data was collected in each well, and a standard curve was generated each day in order to correlate the change in absorbance of the reaction to a change in concentration of cofactors. All measurements were performed in triplicate (at least) and the runs were averaged for use in kinetic modeling."}, "[4]": {"molecular_target": "T4, 2,5-diketo-D-gluconic acid reductase A (Corynebacterium sp., wild type SEQ ID NO:1) variant K232S (Corynebacterium sp., UniProt P06632, K232S)", "T4 construct": "GroES fragment (N); made in house; host or cells: E. coli JM109", "T4 sequence (P06632 whole entry K232S, the tested form may be a part)": "as the sequence (P06632 whole entry K232M, the tested form may be a part) above, with M232S counted along it", "protocol": "as §1, §2, §3, §4, §8, §5, §9, §6, §10, §11\nas §7, with “NaCl. The eluted material was then diluted back to 0.15 M NaCl by the addition of more 20 mM NaOAc buffer. This was then loaded onto a 4.6 mmD/100mml PEEK column (PerSeptive Biosystems) containing 50 μm DEAE Ceramic HyperD F resin (BioSepra) using an FPLC system. The high performance resin was washed with 0.1 M NaCl and the bound proteins were eluted using a linear salt gradient up to 0.4 M NaCl. Active fractions were pooled and the pH was raised to 7.0 using 50 mM bis-Tris. The pooled fractions were then concentrated by ultrafiltration in a stirred cell unit using a polyethersulfone membrane with a 10,000 MW cut-off (Millipore). The concentrate was loaded onto a Superdex-75 gel filtration column (Pharmacia) using 50 mM bis-Tris pH 7.0 with an FPLC system. The active fractions were again pooled. A small sample from the pooled fractions was electrophoresed on a polyacrylamide gel in the presence of SDS in order to insure homogeneity of the final product.” for “NaCl.”\nas §12"}, "[5]": {"molecular_target": "T5, 2,5-diketo-D-gluconic acid reductase A (Corynebacterium sp., wild type SEQ ID NO:1) variant R235G (Corynebacterium sp., UniProt P06632, R235G)", "T5 construct": "GroES fragment (N); made in house; host or cells: E. coli JM109", "T5 sequence (P06632 whole entry R235G, the tested form may be a part)": "as the sequence (P06632 whole entry K232M, the tested form may be a part) above, with M232K, R235G counted along it", "protocol": "as §1, §2, §3, §4, §8, §5, §9, §6, §10, §11\nas §7, with “NaCl. The eluted material was then diluted back to 0.15 M NaCl by the addition of more 20 mM NaOAc buffer. This was then loaded onto a 4.6 mmD/100mml PEEK column (PerSeptive Biosystems) containing 50 μm DEAE Ceramic HyperD F resin (BioSepra) using an FPLC system. The high performance resin was washed with 0.1 M NaCl and the bound proteins were eluted using a linear salt gradient up to 0.4 M NaCl. Active fractions were pooled and the pH was raised to 7.0 using 50 mM bis-Tris. The pooled fractions were then concentrated by ultrafiltration in a stirred cell unit using a polyethersulfone membrane with a 10,000 MW cut-off (Millipore). The concentrate was loaded onto a Superdex-75 gel filtration column (Pharmacia) using 50 mM bis-Tris pH 7.0 with an FPLC system. The active fractions were again pooled. A small sample from the pooled fractions was electrophoresed on a polyacrylamide gel in the presence of SDS in order to insure homogeneity of the final product.” for “NaCl.”\nas §12"}, "[6]": {"molecular_target": "T6, 2,5-diketo-D-gluconic acid reductase A (Corynebacterium sp., wild type SEQ ID NO:1) variant R235T (Corynebacterium sp., UniProt P06632, R235T)", "T6 construct": "GroES fragment (N); made in house; host or cells: E. coli JM109", "T6 sequence (P06632 whole entry R235T, the tested form may be a part)": "as the sequence (P06632 whole entry K232M, the tested form may be a part) above, with M232K, R235T counted along it", "protocol": "as §1, §2, §3, §4, §8, §5, §9, §6, §10, §11\nas §7, with “NaCl. The eluted material was then diluted back to 0.15 M NaCl by the addition of more 20 mM NaOAc buffer. This was then loaded onto a 4.6 mmD/100mml PEEK column (PerSeptive Biosystems) containing 50 μm DEAE Ceramic HyperD F resin (BioSepra) using an FPLC system. The high performance resin was washed with 0.1 M NaCl and the bound proteins were eluted using a linear salt gradient up to 0.4 M NaCl. Active fractions were pooled and the pH was raised to 7.0 using 50 mM bis-Tris. The pooled fractions were then concentrated by ultrafiltration in a stirred cell unit using a polyethersulfone membrane with a 10,000 MW cut-off (Millipore). The concentrate was loaded onto a Superdex-75 gel filtration column (Pharmacia) using 50 mM bis-Tris pH 7.0 with an FPLC system. The active fractions were again pooled. A small sample from the pooled fractions was electrophoresed on a polyacrylamide gel in the presence of SDS in order to insure homogeneity of the final product.” for “NaCl.”\nas §12"}, "[7]": {"details": "kcat/Ka apparent with NADH, relative to wild type"}, "[8]": {"details": "versus wild type, NADH as varied substrate"}}}
{"compound": "NC(=O)C1=CN([C@@H]2O[C@H](COP(=O)(O)OP(=O)(O)OC[C@H]3O[C@@H](n4cnc5c(N)ncnc54)[C@H](O)[C@@H]3O)[C@@H](O)[C@H]2O)C=CC1", "note": "[NADH]", "values": [{"measurement": "Kd", "setting": "[1]", "value": "3.89 ± 0.23", "unit": "mM"}, {"measurement": "(kcat/KbKia)/(kcat/KbKia)wt", "setting": "[1]; [7]", "value": 0.55}, {"measurement": "Kd", "setting": "[2]", "value": "3.87 ± 0.34", "unit": "mM"}, {"measurement": "(kcat/KbKia)/(kcat/KbKia)wt", "setting": "[2]; [7]", "value": 0.59}, {"measurement": "Kd", "setting": "[3]", "value": "2.02 ± 0.12", "unit": "mM"}, {"measurement": "(kcat/KbKia)/(kcat/KbKia)wt", "setting": "[3]; [7]", "value": 1.55}, {"measurement": "Kia/(Kia)wt", "setting": "[3]; relative to wild type, NADH", "value": 0.78}, {"measurement": "Kd", "setting": "[4]", "value": "2.82 ± 0.27", "unit": "mM"}, {"measurement": "(kcat/KbKia)/(kcat/KbKia)wt", "setting": "[4]; [7]", "value": 0.40}, {"measurement": "Kia/(Kia)wt", "setting": "[4]; relative to wild type, NADH", "value": 1.08}, {"measurement": "Kd", "setting": "[5]", "value": "8.42 ± 0.69", "unit": "mM"}, {"measurement": "(kcat/KbKia)/(kcat/KbKia)wt", "setting": "[5]; [7]", "value": 1.53}, {"measurement": "Kia/(Kia)wt", "setting": "[5]; relative to wild type, NADH", "value": 3.24}, {"measurement": "increase of apparent Ka", "setting": "[5]; [8]", "value": "more than 3 fold"}, {"measurement": "increase of apparent kcat", "setting": "[5]; [8]", "value": 5, "unit": "fold"}, {"measurement": "Kd", "setting": "[6]", "value": "8.84 ± 2.28", "unit": "mM"}]}
